US20250136934A1, “PRODUCTION OF INDUCED MIDBRAIN DOPAMINERGIC PROGENITOR CELLS FROM PLURIPOTENT STEM CELLS” (NUWACELL BIOTECHNOLOGIES CO., LTD., priority 2023, published 2025)

Experiments:
[1] = system: imDAP cells; experiment: Specification of imDAP cells under BMP and TGF-β signaling inhibition (FACS FOXA2+/OTX2+, NKX2.1 qRT-PCR, LMX1A immunostaining); format: cell-based, human; settings: for specification of imDAP cells (FIGS. 13A-13D taken together): LDN193189 at 0.2 μM Day 0 to Day 6 and SB431542 at 50 μM Day 0 to Day 4 or Day 0 to Day 6; for specification of imDAP cells (FIGS. 12A-12C taken together): LDN193189 at 0.5 μM and SB431542 at 20 μM, among all combinations of concentrations tested; for specification of imDAP cells (FIGS. 11A-11C taken together): LDN193189 from D0 to D6 and SB431542 from D0 to D4, among all time windows tested
[2] = system: FOXA2+ imDAP cells; experiment: FACS analysis of FOXA2 expression of imDAP cells derived from hiPSCs; format: cell-based, human
Experimental: • 1. Individualize and collect cells by either Accutase or TrypLE treatment. • 2. Wash cells with 1 ml PBS and pellet cells at 250×g for […]. • 3. Remove supernatant, add ˜200 μl of 4% PFA, mix and fix for 10 min at RT. • 4. Pellet cells at 350×g for 5 min. • 5. Wash cells by 1 ml of FACS buffer and pellet cells at 350×g for 5 min. • 6. Remove supernatant, add 200 μl/tube of FACS buffer/0.1% Triton X, mix for 10 min at RT. • 7. Wash cells by 1 ml of FACS buffer and pellet cells at 350×g for 5 min. • 8. Remove supernatant, add 200 μl/tube of primary antibody diluted in FACS buffer, mix gently, and incubate for 30 min at RT. • 9. Wash cells by 1 ml of FACS buffer and pellet cells at 350×g for 5 min. • 10. Remove supernatant, and add 200 μl of secondary antibody diluted in FACS buffer, mix gently, and incubate for 30 min at RT. • 11. Wash cells by 1 ml of FACS buffer and pellet cells at 300×g for 5 min. • 12. Remove supernatant, add 200 μl of FACS buffer, and run samples on the flow cytometer.
On Day-1, EB formation (Stage 1) was carried out by dissociating hiPSCs (Nuwacell) to form a single-cell suspension and resuspending it in Epic medium (Nuwacell, #RP01001) containing 10 μM Blebbistatin (MCE, #HY-13441) in T25 flasks on a belly dancer and culturing the cells overnight. On Day 0, ventral midbrain floor plate differentiation (Stage 2) was initiated by changing the medium to a Stage 2-1 differentiation medium containing DMEM: F12/B27 (plus Vitamin A) (98:2, v/v) as basal medium and supplemented with 0.2 μM LDN193189, 10 μM SB431542, 1 μg/mL SHH C24II and 1.25 μM CHIR99021 and culturing the cells for 3 Days. From Day 3, the basal medium was changed to DMEM: F12/B27 (minus Vitamin A) (98:2, v/v), and CHIR concentration was boosted to 7.5 μM until Day 10 (Stage 2-2). SB431542 was withdrawn on Day 4, and SHH C24II was withdrawn on Day 8. From Day 10 (Stage 2-3), the medium was changed to a differentiation medium containing DMEM: F12/B27 (minus Vitamin A) (98:2, v/v) as basal medium and supplemented with 0.2 μM LDN193189 and 3 μM CHIR99021. During the cell culture, each of the differentiation media was replaced every day. On Day 16 (at the end of S2-3), EBs were dissociated for single cells and collected for analysis. The cells of each group were stained with FOXA2-PE antibody (BD, #561689), the percentage of FOXA2+ imDAP cells were analyzed by flow cytometry (FIG. 5). The above experiment was repeated for three times and the derived imDAP cells were named as Lot1, Lot2 and Lot3, respectively.
On Day-1, EB formation (Stage 1) was carried out by dissociating hiPSCs (Nuwacell) to form a single-cell suspension and resuspending it in Epic medium (Nuwacell, #RP01001) containing 10 μM Blebbistatin (MCE, #HY-13441) in T25 flasks on a belly dancer and culturing the cells overnight. On Day 0, ventral midbrain floor plate differentiation (Stage 2) was initiated by changing the medium to a Stage 2-1 differentiation medium containing DMEM: F12/B27 (plus Vitamin A) (98:2, v/v) as basal medium and supplemented with 0.2 μM LDN193189, 20 μM SB431542, 1.2 μM CHIR99021, and 1 μg/mL SHH C24II or the combination of SHH agonists including 500 ng/mL SHH C24II, 2 μM Purmorphamine and 10 nM SAG and culturing the cells for 3 days. From Day 3, the basal medium was changed to DMEM: F12/B27 (minus Vitamin A) (98:2, v/v). Cells were exposed to Boost-CHIR concentration of 7.5 μM starting from Day 4 to Day 6 (Stage 2-2), followed by a low CHIR concentration of 1.2 μM (Stage 2-3) until Day 10. […]

Row | Compound | specification of imDAP cells (FIGS. 13A-13D taken together) [1] | specification of imDAP cells (FIGS. 12A-12C taken together) [1] | specification of imDAP cells (FIGS. 11A-11C taken together) [1] | percentage of FOXA2+ cells ([2]; without Vitamin A throughout differentiation versus Vitamin A only D0-3 or D0-2) | percentage of cells positive for FOXA2 ([2]; 4-step protocol, SHH agonist in medium Day 0 to Day 10, analysis Day 16) [%]
1 | c1ccc2c(-c3cnn4cc(-c5ccc(N6CCNCC6)cc5)cnc34)ccnc2c1 [LDN193189] | best results | best results | best results | – | –
2 | Vitamin A | – | – | – | higher percentage | –
3 | NC(=O)c1ccc(-c2nc(-c3ccc4c(c3)OCO4)c(-c3ccccn3)[nH]2)cc1 [SB431542] | best results | best results | best results | – | –
4 | SHH C24II: sonic hedgehog agonist polypeptide, SEQ ID NO: 2 | – | – | – | – | 85.71
